Reference: US12492195B2, “Preparation method for and crystal form of 3-aryloxy-3-five-membered heteroaryl-propylamine compound” (Zhangzhou Pien Tze Huang Pharmaceutical Co., Ltd., priority 2020, dated 2025)
In brackets after ≈: the same amount, converted by molar mass. Like-named read-outs stand apart in the source and are kept apart here.

What was measured:
[1] = Hygroscopicity test by dynamic moisture absorption (DVS); format: physicochemical
Method: Dynamic moisture adsorption (DVS) analysis: the instrument is a DVS Intrinsic produced by SMS company (Surface Measurement Systems); temperature, 25° C.; carrier gas, flow rate: nitrogen, 200 ml/min; mass change per unit time: 0.002%/min: relative humidity range: 0/oRH-95% RH.
Dynamic moisture absorption (DVS) was used to test their hygroscopicity.

[2] = Method: In the experiment, the initial dosage of crystal form A of the hydrochloride salt in H2O, SGF, and FaSSIF was about 20 mg/mL, and the initial dosage in FeSSIF was about 40 mg/mL. […] The samples were sealed and mounted on a rotating disk rotating at 25 rpm, and the rotating disk was placed in a 37° C. incubator. Samples were taken at time points 1, 4 and 24 hours of equilibration, and the filtrate was separated and tested concentration by HPLC.
[3] = 24 hours
Method: The crystal form A of the hydrochloride salt of the compound of formula Ic-1 was tested for equilibrium solubility in water for 24 hours at room temperature. The form A was dosed with about 300 mg/mL solid feed, and magnetic stirred (750 rpm) in water for 24 hours to obtain a suspension. After centrifugation, the supernatant was filtered through a 0.22-μm PTFE membrane and then tested by HPLC, and the obtained solid was tested by XRPD.

SMILES: CNCC[C@@H](Oc1cccc2ccoc12)c1cccs1 [Form A]
- change in crystal form (XRPD) before and after the DVS test [1]: no change in crystal form was observed
- solubility ([2]; FaSSIF pH 6.5, 37° C., 1 hour): 20.2 mg/mL (≈ 70.3 mM)
- solubility ([2]; FaSSIF pH 6.5, 37° C., 4 hours): 20.7 mg/mL (≈ 72 mM)
- solubility ([2]; FaSSIF pH 6.5, 37° C., 24 hours): 20.8 mg/mL (≈ 72.4 mM)
- solubility ([2]; FeSSIF pH 5.0, 37° C., 1 hour): 32.8 mg/mL (≈ 114 mM)
- solubility ([2]; FeSSIF pH 5.0, 37° C., 4 hours): 36.8 mg/mL (≈ 128 mM)
- solubility ([2]; FeSSIF pH 5.0, 37° C., 24 hours): 39.4 mg/mL (≈ 137 mM)
- solubility ([2]; SGF pH 1.9, 37° C., 1 hour): 16.5 mg/mL (≈ 57.4 mM)
- solubility ([2]; SGF pH 1.9, 37° C., 4 hours): 14.8 mg/mL (≈ 51.5 mM)
- solubility ([2]; SGF pH 1.9, 37° C., 24 hours): 11.1 mg/mL (≈ 38.6 mM)
- solubility ([2]; Water, 37° C., 1 hour): 16.7 mg/mL (≈ 58.1 mM)
- solubility ([2]; Water, 37° C., 4 hours): 17.7 mg/mL (≈ 61.6 mM)
- solubility ([2]; Water, 37° C., 24 hours): 17.3 mg/mL (≈ 60.2 mM)
- solubility in water (concentration of free state) ([3]; room temperature): 21 ± 0.5 mg/mL
- solubility in water converted to hydrochloride concentration ([3]; room temperature): 237.3 mg/mL (≈ 826 mM)
- solid crystal form after the equilibrium solubility test (XRPD) ([3]; water): solid crystal form did not change
